Measurements: patent publication US9999218B2, “Pest control formulations and methods of making and using same” (0903608 B.C. Ltd., priority 2011, dated 2018)
Like-named read-outs stand apart in the source and are kept apart here.

Assays:
adult bed bugs [1] = type: in vivo
bed bug eggs [2] = type: in vivo, Cimex lectularius L.
Source text: Immediately after infestation, and at 1-, 2-, and 3-week intervals thereafter, the numbers of hatched and unhatched eggs present in the sealed dishes were counted and compared to other Treated Groups. One egg was counted as “hatched” for every new nymph present in the petri dish when compared with the prior interval. Table 13 compares the % egg eclosion of the treated groups at the 3-week observation interval. The maximum mortality data obtained in Example 3, above, are included for comparison purposes.

adult bed bugs [3] = conditions: […] neem oil + […] named solvent in isopropanol, 4 h dried in highly-ventilated room; for Max. Mortality: observed until 14 days
Description: This example illustrates the dry residual pesticidal activity of formulations including neem oil and various organic solvents including alcohols, ketones, esters and carboxylic acids. […] The percent by weight of each solvent was varied to ensure a consistent molar quantity of solvent in each solution. Treated Groups for each solution were prepared by treating filter paper, 90 mm in diameter, with 1.0 mL of solution and allowing it to air dry for four hours in a highly-ventilated room. A known number of adults were added to each treated dish, four hours after treatment. Bed bug mortality was assessed immediately after infestation and at 1-hour, 2-hour, 4-hour, 6-hour, 8-hour, 10-hour, 12-hour, and 24-hour intervals, and at 24-hour intervals thereafter until 14 days after infestation. Adult bed bugs were counted dead if they were unresponsive when stimulated.

bed bug eggs [4] = test: Prevention of egg emergence by various pesticidal natural oils (Example 11); type: in vivo, Cimex lectularius L.; conditions: […] by weight oil with 5.0% acetophenone; all observation intervals
Description: Five bed bug eggs were added to each treated dish, two hours after treatment. Immediately after infestation, and at 1-, 2-, and 3-week intervals thereafter, the numbers of hatched and unhatched eggs present in the sealed dishes were counted and compared to other Treated Groups. One egg was counted as “hatched” for every new nymph present in the petri dish when compared with the prior interval. Table 12 compares the mean % egg eclosion of the treated groups at three weeks post-infestation. The maximum mortality data obtained in Example 2, above, are included for each formulation, for comparison purposes.

adult bed bugs [5] = conditions: in vivo
Description: This example illustrates the dry residual pesticidal activity of formulations comprising further pesticidal natural oils (thyme, garlic and neem oils) with acetophenone as the polar aromatic solvent. Solutions were prepared using 5.5% by weight natural oil; the percentage by weight of organic solvent indicated in Table 20 and an appropriate amount of isopropanol as a carrier diluent. Solvent was added to a final concentration of 1.5 mol/kg. Solutions were also prepared of each natural oil alone (5.5% by weight with an appropriate amount of isopropanol as a carrier diluent), and of the polar organic solvent alone (the percent by weight indicated in Table 20 with an appropriate amount of isopropanol as a carrier diluent). Treated Groups for each solution were prepared by treating filter paper, 90 mm in diameter, with 1.0 mL of solution and allowing it to air dry for four hours. A known number of adults (usually 10) were added to each treated dish, four hours after treatment. Bed bug mortality was assessed immediately after infestation and at 1-hour, 2-hour, 4-hour, 6-hour, 8-hour, 10 hour, 12-hour, and 24-hour intervals, and at 24-hour intervals thereafter until 14 days after infestation. Adult bed bugs were counted dead if they were unresponsive when stimulated.

[6] = […] neem oil + […] named solvent in isopropanol, 4 h dried residue
[7] = […] neem oil + […] named solvent in isopropanol, 4 h dried residue, observed until 14 days
[8] = […] neem oil + named solvent in isopropanol, 4 h dried residue, 3 weeks after infestation

Row | Compound | Time to Max Mortality (adult bed bugs [1]; [6]) [h] | Max. Mortality (adult bed bugs [1]; [7]) [%] | % Eclosion (bed bug eggs [2]; [8]) [%] | Time to Max Mortality (adult bed bugs [3]) [days] | Max. Mortality (adult bed bugs [3]) [%] | also measured
1 | CC(O)c1ccccc1 (stereo not shown) [1-Phenylethanol] | 24 | 100 | 0 |  |  | 
2 | O=C(c1ccc(O)cc1O)c1ccc(O)cc1O [2,2′-4,4′ Tetrahydroxybenzophenone] | 24 | 100 | 0 |  |  | 
3 | CC(C)CC(O)CC(C)C [2,6-Dimethyl-4-heptanol] |  |  |  | 14 | 20 | 
4 | CCCCCCC(CO)CCCC (stereo not shown) [2-Butyl-1-octanol] |  |  |  | 8 | 100 | 
5 | CCCCC(CC)CO (stereo not shown) [2-Ethyl-1-hexanol] |  |  | 0 |  |  | Max. Mortality (adult bed bugs [1]; in vivo): 100%; Time to Max Mortality (adult bed bugs [1]; in vivo): 72 h
6 | CC(C)(O)c1ccccc1 [2-Phenyl-2-propanol] |  |  |  | 1 | 100 | 
7 | CC(C)O [2-Propanol (IPA), 2-Propanol] | 140 | 40 |  |  |  | 
8 | CCCCCCCCC(CO)CCCCCC (stereo not shown) [2-hexyl-1-decanol] |  |  |  | 14 | 100 | 
9 | Cc1ccc(O)c(C=O)c1 [2-hydroxy-5-methyl benzaldehyde] |  |  |  | 1 | 100 | 
10 | CC(=O)OC1CCCCC1C(C)(C)C (stereo not shown) [2-tert-Butylcyclohexylacetate] | 96 | 100 | 20 |  |  | 
11 | CC(=O)c1ccc(C)cc1C [2′,4′-Dimethylacetophenone] | 24 | 100 | 0 |  |  | 
12 | CC(=O)c1ccccc1O [2′-Hydroxyacetophenone] |  |  |  | 1 | 100 | 
13 | Cc1ccc(CO)cc1C [3,4-dimethylbenzyl alcohol] |  |  |  | 14 | 100 | 
14 | CC(=O)c1ccc(C)c(C)c1 [3′,4′-Dimethylacetophenone] | 48 | 100 | 0 |  |  | 
15 | O=C(O)c1ccc(O)cc1 [4-Hydroxy benzoic acid] |  |  |  | 1 | 100 | 
16 | Cc1cc(C(=O)O)ccc1O [4-Hydroxy-3-methyl benzoic acid] |  |  |  | 14 | 60 | 
17 | CC(=O)c1ccc(O)cc1 [4′-Hydroxyacetophenone] |  |  |  | 9 | 50 | 
18 | CCCCC(=O)c1ccc(O)cc1 [4′-Hydroxyvalerophenone] |  |  |  | 14 | 70 | 
19 | CC(=O)c1ccc(C)cc1 [4′-Methylacetophenone] | 48 | 100 | 0 |  |  | 
20 | CCC(=O)c1ccc(C)cc1 [4′-Methylpropiophenone] | 24 | 100 | 0 |  |  | 

Row | Compound | Time to Max Mortality (adult bed bugs [1]; [6]) [h] | Max. Mortality (adult bed bugs [1]; [7]) [%] | % Eclosion (bed bug eggs [2]; [8]) [%] | Time to Max Mortality (adult bed bugs [3]) [days] | Max. Mortality (adult bed bugs [3]) [%] | also measured
21 | Cc1ccc(C(C)O)cc1 (stereo not drawn) [Alpha-4-dimethylbenzyl alcohol] |  |  |  | 1 | 100 | 
22 | O=Cc1ccccc1 [Benzaldehyde] | 336 | 100 | 0 |  |  | 
23 | c1ccccc1 [Benzene] |  |  |  | 14 | 40 | 
24 | O=C(O)c1ccccc1 [Benzoic acid] |  |  | 0 |  |  | Max. Mortality (adult bed bugs [1]; in vivo): 100%; Time to Max Mortality (adult bed bugs [1]; in vivo): 48 h
25 | OCc1ccccc1 [Benzyl alcohol] | 24 | 100 | 0 |  |  | 
26 | O=C(OCc1ccccc1)c1ccccc1 [Benzyl benzoate] |  |  |  | 8 | 100 | 
27 | COCc1ccccc1 [Benzyl methyl ether] |  |  |  | 8 | 60 | 
28 | CCCCOc1ccccc1 [Butyl phenyl ether] |  |  |  | 6 | 100 | 
29 | CCCC(=O)c1ccccc1 [Butyrophenone] | 24 | 100 | 0 |  |  | 
30 | OC1CCCCC1 [Cyclohexanol] | 336 | 60 | 60 |  |  | 
31 | O=C1CCCCC1 [Cyclohexanone] | 240 | 50 | 40 |  |  | 
32 | O=C(c1ccccc1)C1CCCCC1 [Cyclohexyl phenyl ketone] |  |  |  | 8 | 90 | 
33 | c1ccc(COCc2ccccc2)cc1 [Dibenzyl ether] |  |  |  | 7 | 90 | 
34 | c1ccc(Oc2ccccc2)cc1 [Diphenyl ether] |  |  |  | 3 | 100 | 
35 | CCOC(C)=O [Ethyl acetate] | 336 | 30 | 100 |  |  | 
36 | CCOC(=O)c1ccccc1 [Ethyl benzoate] |  |  |  | 2 | 100 | 
37 | CCCCCC(=O)c1ccccc1 [Hexanophenone] | 140 | 100 | 0 |  |  | 
38 | CC(C)COC(=O)c1ccccc1 [Isobutyl benzoate] |  |  |  | 8 | 90 | 
39 | CC(C)C(=O)c1ccccc1 [Isobutyrophenone] | 48 | 100 | 0 |  |  | 
40 | CC(=O)C1CCCCC1 [Methylcyclohexylketone] | 264 | 70 | 80 |  |  | 

Row | Compound | Time to Max Mortality (adult bed bugs [1]; [6]) [h] | Max. Mortality (adult bed bugs [1]; [7]) [%] | % Eclosion (bed bug eggs [2]; [8]) [%] | Time to Max Mortality (adult bed bugs [3]) [days] | Max. Mortality (adult bed bugs [3]) [%] | also measured
41 | Oc1ccccc1 [Phenol] |  |  |  | 1 | 100 | 
42 | CCC(=O)c1ccccc1 [Propiophenone] | 24 | 100 | 0 |  |  | 
43 | CCCOC(=O)c1ccc(O)cc1 [Propyl-4-hydroxybenzoate] | 24 | 100 | 0 |  |  | 
44 | CCCCO [Solution 1-Butanol, 1-Butanol] |  |  |  |  |  | Max. Mortality (adult bed bugs [1]; in vivo): 40%; Time to Max Mortality (adult bed bugs [1]; in vivo): 190 h; % Eclosion (bed bug eggs [2]; in vivo): 100%
45 | CCCCCCCCCCO [Solution 1-Decanol, 1-Decanol] |  |  | 0 |  |  | Max. Mortality (adult bed bugs [1]; in vivo): 100%; Time to Max Mortality (adult bed bugs [1]; in vivo): 264 h
46 | CCCCCCO [Solution 1-Hexanol, 1-Hexanol] |  |  | 0 |  |  | Max. Mortality (adult bed bugs [1]; in vivo): 40%; Time to Max Mortality (adult bed bugs [1]; in vivo): 336 h
47 | CCCCCCCCCO [Solution 1-Nonanol, 1-Nonanol] |  |  |  | 2 | 100 | 
48 | CCCCCCCCCCCCO [Solution 1-dodecanol, 1-dodecanol] |  |  |  | 14 | 90 | 
49 | CCC(C)O (stereo not shown) [Solution 2-Butanol, 2-Butanol] |  |  |  |  |  | Max. Mortality (adult bed bugs [1]; in vivo): 20%; Time to Max Mortality (adult bed bugs [1]; in vivo): 336 h; % Eclosion (bed bug eggs [2]; in vivo): 100%
50 | CCCCCCC(C)O (stereo not shown) [Solution 2-Octanol, 2-Octanol] |  |  |  | 2 | 100 | 
51 | CCCCC(O)CC (stereo not shown) [Solution 3-Heptanol, 3-Heptanol] |  |  |  | 14 | 30 | 
52 | Cc1ccccc1 [Toluene] |  |  |  | 14 | 50 | 
53 | C/C=C/c1ccc(OC)cc1 [Trans-anethole] |  |  |  | 5 | 100 | 
54 | CCCCC(=O)c1ccccc1 [Valerophenone] | 24 | 100 | 0 |  |  | 
55 | CC(C)=CCC/C(C)=C/CO [geraniol] |  |  |  |  |  | prevention of egg eclosion (bed bug eggs [4]): complete prevention of egg eclosion
56 | Cc1ccc(C=O)cc1 [p-Tolualdehyde] |  |  |  | 6 | 50 | 
57 | Cc1ccc(C)cc1 [p-Xylene] |  |  |  | 14 | 30 | 
58 | Neem Oil |  |  |  |  |  | Max Mortality (adult bed bugs [5]): 10%
